Measured values taken from ChEMBL document CHEMBL1148049, “Antimitotic and cytotoxic flavonols from Zieridium pseudobtusifolium and Acronychia porteri” (J Nat Prod, 1994).
In brackets after ≈: the same amount, converted by molar mass.

Tested on: not listed separately
Experiment: Inhibition of tubulin assembly

Structure (SMILES) | IC50 [µM]
COc1ccc(-c2oc3c(OC)c(OC)c(OC)c(O)c3c(=O)c2OC)cc1O | 12
COc1ccc(-c2oc3cc(O)c(OC)c(O)c3c(=O)c2OC)cc1O [CENTAUREIDIN] | 3
CC[C@]1(O)C[C@@H]2CN(CCc3c([nH]c4ccccc34)[C@@](C(=O)OC)(c3cc4c(cc3OC)N(C)[C@H]3[C@@](O)(C(=O)OC)[C@H](OC(C)=O)[C@]5(CC)C=CCN6CC[C@]43[C@@H]65)C2)C1 [VINBLASTINE] | 4

Tested on: KB
Experiment: Cytotoxicity against human KB cells
Assay type: functional, cell-based

Structure (SMILES) | IC50 [µg/mL]
COc1ccc(-c2oc3c(OC)c(OC)c(OC)c(O)c3c(=O)c2OC)cc1O | 0.04 (≈ 0.0989 µM)
COc1ccc(-c2oc3c(OC)c(OC)c(OC)c(O)c3c(=O)c2OC)cc1OC | 6 (≈ 14.3 µM)
COc1cc(-c2oc3c(OC)c(OC)c(OC)c(O)c3c(=O)c2O)cc(O)c1OC | 2 (≈ 4.76 µM)
COc1ccc(-c2oc3c(OC)c(OC)c(OC)c(O)c3c(=O)c2O)cc1O | 6 (≈ 15.4 µM)
COc1ccc(-c2oc3c(OC)c(OC)c(OC)c(O)c3c(=O)c2O)cc1OC | 0.1 (≈ 0.247 µM)
COc1c(OC)c(O)c2c(=O)c(OC)c(-c3ccc(O)c(O)c3)oc2c1OC | 0.44 (≈ 1.13 µM)
COc1cc(-c2oc3c(OC)c(OC)c(OC)c(O)c3c(=O)c2OC)ccc1O | 0.2 (≈ 0.495 µM)
COc1ccc(-c2oc3cc(O)c(OC)c(O)c3c(=O)c2OC)cc1O [CENTAUREIDIN] | 0.27 (≈ 0.749 µM)
COc1cc(-c2oc3c(OC)c(OC)c(OC)c(O)c3c(=O)c2OC)cc(O)c1OC [DIGICITRIN] | 2 (≈ 4.6 µM)
